Experimental data published in patent US20220326229A1, “ASSAY FOR REAL-TIME SIMULTANEOUS RECRUITMENT OF ARRESTIN ISOFORMS TO G PROTEIN-COUPLED RECEPTORS” (Purdue Research Foundation, priority 2021, published 2022).

How the values were obtained:
δ opioid receptor (DOR) = target: T1, δ opioid receptor (DOR) (Mus musculus, UniProt P32300); test: ClickArr assay: simultaneous recruitment of Barr1 (508 nm) and Barr2 (620 nm) to DOR in triply transfected HEK293 cells; assay type: cell-based
T1 construct: influenza signal peptide (N); linker […]; expressed in transfected cells; host or cells: HEK293
T1 sequence (P32300 with tags, fused parts or gaps): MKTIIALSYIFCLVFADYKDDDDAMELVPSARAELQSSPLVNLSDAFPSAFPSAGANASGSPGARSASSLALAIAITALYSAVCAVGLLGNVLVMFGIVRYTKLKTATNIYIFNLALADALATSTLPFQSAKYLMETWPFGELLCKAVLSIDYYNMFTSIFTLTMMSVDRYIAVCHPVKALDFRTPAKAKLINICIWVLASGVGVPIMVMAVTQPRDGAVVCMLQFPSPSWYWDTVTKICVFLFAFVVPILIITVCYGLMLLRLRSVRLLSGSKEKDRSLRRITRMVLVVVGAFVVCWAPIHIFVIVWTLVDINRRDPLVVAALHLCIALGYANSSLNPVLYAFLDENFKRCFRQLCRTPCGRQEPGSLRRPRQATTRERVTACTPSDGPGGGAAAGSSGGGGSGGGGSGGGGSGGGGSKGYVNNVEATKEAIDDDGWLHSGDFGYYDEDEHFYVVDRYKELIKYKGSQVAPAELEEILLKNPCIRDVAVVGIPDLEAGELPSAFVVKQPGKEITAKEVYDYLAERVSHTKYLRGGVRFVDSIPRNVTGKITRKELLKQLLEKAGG

[1] = target: T2, dopamine D2 receptor (D2R) (Homo sapiens, UniProt P14416); assay type: cell-based; conditions: FIG. 7B; single replicate, pilot experiment
T2 construct: linker […]; expressed in transfected cells; host or cells: HEK293

D2R = D2R (Homo sapiens, UniProt P14416); conditions: cited from earlier work
[2] = target: T3, Signal peptide + FLAG tag-KOR-GSSGGGGSGGGGSGGGGSGGGG-CBGct(395-542) (mouse); test: split click beetle luciferase complementation (ClickArr), triply transfected cells, dynorphin17 dose-response, single replicate
T3 construct: also called kappa opioid receptor-CBGct; kappa opioid receptor
T3 chain: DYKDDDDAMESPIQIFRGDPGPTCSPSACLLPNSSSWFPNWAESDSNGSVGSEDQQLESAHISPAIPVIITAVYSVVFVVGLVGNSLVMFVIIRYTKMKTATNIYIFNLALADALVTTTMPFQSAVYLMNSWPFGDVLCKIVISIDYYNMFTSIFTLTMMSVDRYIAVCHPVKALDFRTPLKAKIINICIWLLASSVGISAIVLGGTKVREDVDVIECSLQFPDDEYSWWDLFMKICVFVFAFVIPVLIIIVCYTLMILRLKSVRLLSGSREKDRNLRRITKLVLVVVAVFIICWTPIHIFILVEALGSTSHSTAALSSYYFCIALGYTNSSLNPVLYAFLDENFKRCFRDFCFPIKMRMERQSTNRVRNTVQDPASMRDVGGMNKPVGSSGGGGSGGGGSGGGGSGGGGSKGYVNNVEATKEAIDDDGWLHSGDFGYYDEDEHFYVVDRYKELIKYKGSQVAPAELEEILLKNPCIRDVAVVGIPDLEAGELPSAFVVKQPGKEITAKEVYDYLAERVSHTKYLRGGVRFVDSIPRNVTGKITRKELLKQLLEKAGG

[3] = target: T4, 3xHA-AGTR1(2-360)-GSSGGGGSGGGGSGGGGSGGGG-CBGct(395-542) (human); test: split click beetle luciferase complementation (ClickArr), triply transfected cells, angiotensin II dose-response, single replicate
T4 construct: also called AGTR1-CBGct; angiotensin type 1 receptor
T4 chain: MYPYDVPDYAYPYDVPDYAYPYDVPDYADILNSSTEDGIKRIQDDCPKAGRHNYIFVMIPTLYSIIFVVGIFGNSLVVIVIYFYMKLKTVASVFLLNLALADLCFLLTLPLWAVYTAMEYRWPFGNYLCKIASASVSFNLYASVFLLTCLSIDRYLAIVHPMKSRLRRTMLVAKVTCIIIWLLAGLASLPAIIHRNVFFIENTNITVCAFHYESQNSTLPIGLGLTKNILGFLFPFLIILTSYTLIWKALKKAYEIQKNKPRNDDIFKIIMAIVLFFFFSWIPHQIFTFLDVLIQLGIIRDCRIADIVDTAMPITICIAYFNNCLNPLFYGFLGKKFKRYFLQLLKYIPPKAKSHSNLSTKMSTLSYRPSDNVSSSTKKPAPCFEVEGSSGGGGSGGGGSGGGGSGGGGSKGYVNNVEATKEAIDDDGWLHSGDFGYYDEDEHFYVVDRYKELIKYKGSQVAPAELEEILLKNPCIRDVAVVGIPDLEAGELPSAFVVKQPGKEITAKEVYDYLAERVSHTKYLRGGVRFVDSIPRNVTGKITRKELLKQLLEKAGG

[4] = target: T5, D2R-GSSGGGGSGGGGSGGGGSGGGG-CBGct(395-542) (human); test: split click beetle luciferase complementation (ClickArr), triply transfected cells, UNC9994 dose-response, single replicate
T5 construct: also called D2R-CBGct; dopamine D2 receptor
T5 chain: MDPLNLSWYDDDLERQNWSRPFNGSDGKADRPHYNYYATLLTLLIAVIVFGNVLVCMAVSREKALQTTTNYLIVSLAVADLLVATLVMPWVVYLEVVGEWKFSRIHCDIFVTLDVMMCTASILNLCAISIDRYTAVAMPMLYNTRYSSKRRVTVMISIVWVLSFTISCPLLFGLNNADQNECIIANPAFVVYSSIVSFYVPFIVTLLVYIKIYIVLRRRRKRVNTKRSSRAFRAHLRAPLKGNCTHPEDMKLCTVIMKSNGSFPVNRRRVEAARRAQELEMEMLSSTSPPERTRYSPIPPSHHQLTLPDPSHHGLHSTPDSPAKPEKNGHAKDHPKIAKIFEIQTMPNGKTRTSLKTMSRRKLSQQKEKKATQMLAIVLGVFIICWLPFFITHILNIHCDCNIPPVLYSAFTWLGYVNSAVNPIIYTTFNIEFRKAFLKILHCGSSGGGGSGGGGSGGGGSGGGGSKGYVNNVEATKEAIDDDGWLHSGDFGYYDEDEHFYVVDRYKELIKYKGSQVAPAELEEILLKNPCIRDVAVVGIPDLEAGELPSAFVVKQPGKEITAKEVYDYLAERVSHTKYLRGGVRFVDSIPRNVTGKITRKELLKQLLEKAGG

[5] = target: T6, Signal peptide + FLAG tag-DOR-GSSGGGGSGGGGSGGGGSGGGG-CBGct(395-542) (mouse (Mus musculus)); test: split click beetle luciferase complementation (ClickArr), kinetic read at 508 nm, triply transfected HEK293 cells, 32 µM leu-enkephalin or TAN67
T6 construct: also called optimized DOR construct; DOR-CBGct
T6 chain: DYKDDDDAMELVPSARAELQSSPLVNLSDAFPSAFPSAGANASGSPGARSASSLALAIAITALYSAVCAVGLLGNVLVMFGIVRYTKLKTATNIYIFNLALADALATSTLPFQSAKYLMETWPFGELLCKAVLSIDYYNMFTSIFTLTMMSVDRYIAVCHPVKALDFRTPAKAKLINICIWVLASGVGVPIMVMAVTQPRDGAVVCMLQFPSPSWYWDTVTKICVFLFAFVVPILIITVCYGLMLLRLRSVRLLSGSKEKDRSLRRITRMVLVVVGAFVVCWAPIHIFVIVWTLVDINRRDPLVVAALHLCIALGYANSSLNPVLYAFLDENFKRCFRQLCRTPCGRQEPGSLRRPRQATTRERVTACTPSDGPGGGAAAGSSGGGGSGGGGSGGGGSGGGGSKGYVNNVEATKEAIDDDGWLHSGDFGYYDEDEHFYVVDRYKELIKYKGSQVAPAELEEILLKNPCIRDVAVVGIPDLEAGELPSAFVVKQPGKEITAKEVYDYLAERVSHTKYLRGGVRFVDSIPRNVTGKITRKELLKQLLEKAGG

Q: Which “Δ% efficacy Barr1-Barr2 compared to Leu-Enk” value (δ opioid receptor (DOR); difference in maximum change in signal between arrestin isoforms, as a percentage of Leu-Enk, n=5-6 biological replicates, FIG. 5C) does the source give for `Br.Br.CN1CC[C@@]2(c3cccc(O)c3)Cc3nc4ccccc4cc3C[C@@H]2C1` (racemic) [TAN67, (R*,S*)-(±)-2-Methyl-4aa-(3-hydroxyphenyl)-1,2,3,4,4a,5,12,12aa-octahydroquinolino[2,3,3-g]isoquinoline dihydrobromide] here?
A: Its value is “significant difference in efficacy”.

Q: And the “Kinetics of Barr1 vs Barr2 recruitment (normalized β-arrestin signal over time)” value (δ opioid receptor (DOR); saturating concentration (32 μM), n=6 replicates, FIGS. 6A, 6B)?
A: The value was “Recruitment of Barr1 is much slower than Barr2”.

Q: For `Cl.Clc1cccc(C2CCN(CCCOc3ccc4scnc4c3)CC2)c1Cl` [UNC9994, 5-(3-(4-(2,3-dichlorophenyl)piperidin-1-yl)propoxy)benzo[d]thiazole hydrochloride], which “Potency of β-arrestin curves relative to published value” [1] is on record?
A: The value was “as potent or more potent than published values”.

Q: And the “Response: fold change in dopamine receptor:β-arrestin signal” value [1]?
A: Its value is “showed a response”.

Q: And the EC50 (D2R; Allen et al., PNAS 108(45): 18488-18493 (2011), read-out: Published potency value)?
A: The EC50 was 448 nM.

Q: And the “log10 of published potency value” (D2R; log10 (M) of 448 nM, Allen et al. 2011)?
A: Its value is ~−6.3.

B1: CBGnt(1-415)-SGGGGSGGGGSGGGGSGGGGS-Barr1 (other)
chain: MVKREKNVIYGPEPLHPLEDLTAGEMLFRALRKHSHLPQALVDVVGDESLSYKEFFEATVLLAQSLHNCGYKMNDVVSICAENNTRFFIPVIAAWYIGMIVAPVNESYIPDELCKVMGISKPQIVFTTKNILNKVLEVQSRTNFIKRIIILDTVENIHGCESLPNFISRYSDGNIANFKPLHFDPVEQVAAILCSSGTTGLPKGVMQTHQNICVRLIHALDPRVGTQLIPGVTVLVYLPFFHAFGFSITLGYFMVGLRVIMFRRFDQEAFLKAIQDYEVRSVINVPSVILFLSKSPLVDKYDLSSLRELCCGAAPLAKEVAEVAAKRLNLPGIRCGFGLTESTSANIHSLGDEFKSGSLGRVTPLMAAKIADRETGKALGPNQVGELCIKGPMVSKGYVNNVEATKEAIDDDGWLSGGGGSGGGGSGGGGSGGGGSGDKGTRVFKKASPNGKLTVYLGKRDFVDHIDLVDPVDGVVLVDPEYLKERRVYVTLTCAFRYGREDLDVLGLTFRKDLFVANVQSFPPAPEDKKPLTRLQERLIKKLGEHAYPFTFEIPPNLPCSVTLQPGPEDTGKACGVDYEVKAFCAENLEEKIHKRNSVRLVIRKVQYAPERPGPQPTAETTRQFLMSDKPLHLEASLDKEIYYHGEPISVNVHVTNNTNKTVKKIKISVRQYADICLFNTAQYKCPVAMEEADDTVAPSSTFCKVYTLTPFLANNREKRGLALDGKLKHEDTNLASSTLLREGANREILGIIVSYKVKVKLVVSRGGDVAVELPFTLMHPKPKEEPPHREVPENETPVDTNLIELDTNDDDIVFEDFARQRLKGMKDDKEEEEDGTGSPQLNNR
notes: also called optimized Barr1 construct; CBGnt-Barr1
Q: Does B1 bind [2]?
A: Result: binds

Q: Does B1 bind [3]?
A: Result: binds

Q: Does B1 bind [4]?
A: Result: binds

Q: Does B1 bind [5]?
A: Result: binds
